Assay results published in patent US20090061009A1, “Composition and Method of Treatment of Bacterial Infections” (priority 2007, published 2009).
Where a name gives a salt, the structure may show the parent alone.

Assays:
glioblastoma = experiment: Glioblastoma model, survival; assay type: in vivo; details: day 100 after tumor inoculation, same dose and schedule
[1] = test system: Mycobacterium tuberculosis strain H37Rv (ATCC 27294); experiment: Tuberculosis model in BALB/c mice; assay type: in vivo; details: for Survival rate, % D14: day 14; for Survival rate, % D28 / Bacterial count in lungs, log CFU D28: day 28; for Bacterial count in lungs, log CFU D28: 10.06 ± 0.304 at D1
MAC = details: 100 mg/kg IM five days a week for four weeks; cited from earlier work
E. coli ATCC 25922 = experiment: Sepsis (septicemia) model in mice; assay type: in vivo
Method: Sepsis (septicemia) model: Escherichia coli O157 was chosen as a model infection being one of the most common nosocomial pathogens. Female BALB/C mice were infected by the intraperitoneal injection of 2.5×10^8 cells (LD90). Treatment started 2 hours post bacterial inoculation
E. coli ATCC 25922 was stored at −80° C. until use in this study. The bacterium was transferred onto Trypticase Soy Agar (TSA) plates and incubated for 18 h at 37° C. A suspension of the bacterium was prepared in PBS and added to sterile 5% hog mucin. An aliquot of the suspension was added to 5% hog gastric mucin to obtain the required concentration of inoculum (3.5×10^6 CFU/mL). Each mouse was inoculated with 0.5 mL of the appropriate inoculum preparation by IP injection. 2 hours later mice were treated with a single injection of the appropriate concentration of Gentamicin sulfate in dose 10 mg/kg (calculated by base).

[2] = BALB/c mice, 100 mg/kg IP 2/week, cumulative 800 mg/kg SM base
[3] = BALB/c mice, 200 mg/kg IP 5/week, cumulative 4000 mg/kg SM base

COc1cccc2c1C(=O)c1c(O)c3c(c(O)c1C2=O)C[C@@](O)(C(=O)CO)C[C@@H]3O[C@H]1C[C@H](N)[C@H](O)[C@H](C)O1 [Doxorubicin in solution, Doxorubicin]
survival rate (glioblastoma): 0%

[H]/N=C(/N)N[C@H]1[C@H](O)[C@@H](O)[C@H](O[C@@H]2O[C@@H](C)[C@](O)(C=O)[C@H]2O[C@@H]2O[C@@H](CO)[C@H](O)[C@@H](O)[C@@H]2NC)[C@@H](N/C(N)=N\[H])[C@@H]1O [SM USP solution, Streptomycin sulfate]
survival rate ([1]; 800 mg cumulative dose of SM): 58% | Survival rate, % D14 [1, 2]: 83% | Survival rate, % D28 [1, 2]: 58% | Bacterial count in lungs, log CFU D28 ([1]; BALB/c mice, 100 mg/kg IP 2/week): 8.37 ± 0.367 log CFU | Bacterial count in lungs, log CFU D56 ([1]; BALB/c mice, 200 mg/kg IP 5/week for 28 days, day 56): 8.86 ± 0.18 log CFU | Survival rate, % D14 [1, 3]: 92% | Survival rate, % D28 [1, 3]: 92% | Bacterial count in lungs, log CFU D28 ([1]; BALB/c mice, 200 mg/kg IP 5/week): 7.57 ± 0.268 log CFU | survival rate ([1]; positive control, cumulative 4000 mg SM): 92%

[H]/N=C(/N)N[C@H]1[C@H](O)[C@@H](O)[C@H](O[C@@H]2O[C@@H](C)[C@](O)(C=O)[C@H]2O[C@@H]2O[C@@H](CO)[C@H](O)[C@@H](O)[C@@H]2NC)[C@@H](N/C(N)=N\[H])[C@@H]1O [Streptomycin]
bacterial counts of MAC from spleen, lungs and liver (MAC): significant reduction

Gentamicin sulfate [Gentamicin sulfate solution]
Day of death after inoculation: 2 (number of deaths) (E. coli ATCC 25922; 10 mg/kg single injection, day 2): 3 | Day of death after inoculation: 3 (number of deaths) (E. coli ATCC 25922; 10 mg/kg single injection, day 3): 1 | Day of death after inoculation: 4 (number of deaths) (E. coli ATCC 25922; 10 mg/kg single injection, day 4): 1 | Survival rates (E. coli ATCC 25922; E.Coli induced septicemia in mice, untreated 11%): 50% | No. dead/No. treated (E. coli ATCC 25922; mice, 1.8 × 10^6 E. coli per mouse IP, single injection 10 mg/kg (as base) 2 hours later, observed six days): 5/10
